Patent US20250144220A1, “CONJUGATE FOR PREVENTING AND TREATING VIRAL INFECTIONS AND USE THEREOF” (priority 2021, published 2025)
Where two headings read alike, the source gives them in different places.

Key:
Test in all cases: microbe, parasite or virus in culture
Assay type in all cases: cell-based, influenza virus H1N1
[1] = test system: Oseltamivir-resistant A/Weiss/43 (H1N1)
[2] = test system: Baloxavir-resistant A/PR/8/34 (H1N1)
[3] = test system: VX-787-resistant A/PR/8/34 (H1N1)

Compound `CC(=O)N[C@H]1[C@H]([C@H](O)[C@H](O)CO)OC(C(=O)O)=C[C@@H]1N=C(N)N` [Zanamivir, zanamivir, reference compound] has an EC50 ([1]; read-out: EC50) of 24.4 nM, an EC50 ([2]; read-out: EC50) of 1390 nM and an EC50 ([3]; read-out: EC50) of 167 nM.
`CCC(CC)O[C@@H]1C=C(C(=O)O)C[C@H](N)[C@H]1NC(C)=O` [Oseltamivir acid] was tested, and the EC50 ([1]; Influenza A virus, H1N1, MDCK, 120 h) was > 100000 nM, the EC50 ([2]; Influenza A virus, MDCK, 120 h) was 2380 nM and the EC50 ([3]; Influenza A virus, MDCK, 120 h) was 1060 nM.
Work on `O=C1c2c(O)c(=O)ccn2N([C@@H]2c3ccccc3SCc3c2ccc(F)c3F)[C@@H]2COCCN12` [Baloxavir, baloxivir] yielded an EC50 ([2]; Influenza A virus, MDCK, 120 h) of 95 nM and an EC50 ([3]; Influenza A virus, MDCK, 120 h) of 0.58 nM.
